In patent publication US10800791B2, “Triazole ACC inhibitors and uses thereof” (Gilead Apollo, LLC, priority 2015, dated 2020) one finds IC50 and IC90 data, which are given here for 16 compounds.

Like-named read-outs stand apart in the source and are kept apart here.

One experiment concerns the target human (hACC2) (Homo sapiens, UniProt O00763). The experiment in a line: In vitro ACC inhibition assay (ADP-Glo), hACC2. It counts as biochemical. To be noted: 5 nM ACC2, 20 μM ATP, 20 μM acetyl-CoA. As for the experimental part:
The detailed procedure is as follows. […] 10 μL ADP glo reagent was added. […] 20 μL kinase detection reagent was added.
(ADP-Glo turns the ADP formed in a reaction into a luminescent signal.)

Experiment [1] concerns Phytophthora capsici (Pc). The experiment in a line: Growth inhibition assay of fungal pathogens, Pc. It counts as cell-based. To be noted: 48 h. The method in brief:
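Pathogen growth in 17% V8 broth is measured by OD600 at 24 and 48 hours, after blank subtraction, in the presence of compound at 50, 10 and 2 ppm or 2, 0.4 and 0.08 ppm. Inhibition in percent comes from 48-hour readings against the DMSO control.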

The mark [2] stands for this setting: growth inhibition at 48 hours vs 2% DMSO control, read-out: Concentration at 90% Inhibition Pc.
[3] abbreviates: growth inhibition vs 2% DMSO control at 48 hours, read-out: Concentration at 90% Inhibition Pc.
Where [4] appears, read: read-out: Concentration at 90% Inhibition Pc, Phytophthora capsici, growth inhibition at 48 hours vs 2% DMSO control.
Setting [5] is: read-out: Concentration at 90% Inhibition Pc, Phytophthora capsici, growth inhibition vs 2% DMSO control at 48 hours.

human (hACC2), sequence (O00763 whole entry): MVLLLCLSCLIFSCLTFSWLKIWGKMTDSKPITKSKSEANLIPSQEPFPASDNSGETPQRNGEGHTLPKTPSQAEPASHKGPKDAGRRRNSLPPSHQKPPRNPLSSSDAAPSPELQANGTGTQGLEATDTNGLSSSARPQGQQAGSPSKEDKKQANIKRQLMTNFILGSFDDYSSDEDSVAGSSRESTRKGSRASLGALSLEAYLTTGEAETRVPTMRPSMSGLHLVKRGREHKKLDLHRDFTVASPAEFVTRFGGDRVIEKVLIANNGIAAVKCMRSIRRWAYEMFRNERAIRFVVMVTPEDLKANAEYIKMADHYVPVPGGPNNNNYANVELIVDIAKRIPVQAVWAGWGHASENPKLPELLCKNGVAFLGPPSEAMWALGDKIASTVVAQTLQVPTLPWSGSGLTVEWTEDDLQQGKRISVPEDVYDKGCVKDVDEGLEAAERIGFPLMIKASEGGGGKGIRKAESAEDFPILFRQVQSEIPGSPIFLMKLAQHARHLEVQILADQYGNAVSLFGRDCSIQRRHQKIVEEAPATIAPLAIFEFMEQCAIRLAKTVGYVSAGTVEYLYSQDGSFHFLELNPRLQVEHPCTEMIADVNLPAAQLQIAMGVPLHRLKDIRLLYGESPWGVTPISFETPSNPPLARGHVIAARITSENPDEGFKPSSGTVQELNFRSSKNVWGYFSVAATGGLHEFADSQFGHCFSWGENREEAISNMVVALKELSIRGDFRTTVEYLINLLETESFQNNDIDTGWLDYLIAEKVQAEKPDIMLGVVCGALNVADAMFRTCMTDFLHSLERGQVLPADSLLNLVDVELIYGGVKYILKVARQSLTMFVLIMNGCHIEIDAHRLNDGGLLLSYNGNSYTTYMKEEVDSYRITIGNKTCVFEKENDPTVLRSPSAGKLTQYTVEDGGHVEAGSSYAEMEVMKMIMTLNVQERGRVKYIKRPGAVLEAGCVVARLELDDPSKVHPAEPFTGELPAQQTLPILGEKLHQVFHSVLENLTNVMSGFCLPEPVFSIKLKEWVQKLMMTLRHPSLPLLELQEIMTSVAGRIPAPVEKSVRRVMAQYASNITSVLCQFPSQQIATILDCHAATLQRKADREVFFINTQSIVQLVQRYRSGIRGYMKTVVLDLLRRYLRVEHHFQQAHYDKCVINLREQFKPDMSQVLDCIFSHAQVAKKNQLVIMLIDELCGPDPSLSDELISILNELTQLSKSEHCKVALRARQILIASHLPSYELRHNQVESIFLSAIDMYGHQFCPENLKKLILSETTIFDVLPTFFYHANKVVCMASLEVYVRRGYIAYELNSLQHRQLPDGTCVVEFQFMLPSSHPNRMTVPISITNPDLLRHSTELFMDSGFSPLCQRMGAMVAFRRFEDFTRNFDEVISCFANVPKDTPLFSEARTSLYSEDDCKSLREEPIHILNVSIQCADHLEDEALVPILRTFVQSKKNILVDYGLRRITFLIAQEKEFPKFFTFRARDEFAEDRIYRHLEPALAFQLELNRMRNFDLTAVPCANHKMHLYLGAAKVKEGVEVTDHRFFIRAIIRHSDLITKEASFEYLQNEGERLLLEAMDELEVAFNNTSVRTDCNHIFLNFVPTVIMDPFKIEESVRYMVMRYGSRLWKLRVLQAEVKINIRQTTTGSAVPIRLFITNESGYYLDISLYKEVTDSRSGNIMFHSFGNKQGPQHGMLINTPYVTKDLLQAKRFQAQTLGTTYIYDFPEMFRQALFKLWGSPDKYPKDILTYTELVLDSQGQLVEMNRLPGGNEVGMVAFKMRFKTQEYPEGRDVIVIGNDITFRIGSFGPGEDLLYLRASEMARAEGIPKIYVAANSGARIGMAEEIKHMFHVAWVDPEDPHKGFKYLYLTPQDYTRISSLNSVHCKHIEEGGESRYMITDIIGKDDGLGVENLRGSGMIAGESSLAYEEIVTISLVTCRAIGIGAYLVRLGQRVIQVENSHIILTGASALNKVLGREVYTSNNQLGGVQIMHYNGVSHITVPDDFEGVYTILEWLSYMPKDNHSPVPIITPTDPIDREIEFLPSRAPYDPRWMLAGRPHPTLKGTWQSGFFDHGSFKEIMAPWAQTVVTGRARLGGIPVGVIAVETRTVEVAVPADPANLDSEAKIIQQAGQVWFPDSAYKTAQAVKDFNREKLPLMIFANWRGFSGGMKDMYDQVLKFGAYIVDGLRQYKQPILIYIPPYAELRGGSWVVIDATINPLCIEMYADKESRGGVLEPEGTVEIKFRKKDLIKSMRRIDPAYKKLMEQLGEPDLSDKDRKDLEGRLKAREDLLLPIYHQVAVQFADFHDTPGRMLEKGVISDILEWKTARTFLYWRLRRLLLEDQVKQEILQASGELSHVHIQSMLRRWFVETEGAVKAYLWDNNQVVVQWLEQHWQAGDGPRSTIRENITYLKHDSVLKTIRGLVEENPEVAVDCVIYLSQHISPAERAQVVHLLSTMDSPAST

Turning to `COc1ccc(F)cc1[C@H](Cn1c(=O)n(C(C)(C)C(=O)N2CC=CC2)c(=O)c2c(C)c(-n3nccn3)sc21)OC1CCOCC1` [Compound I-62, (R)-3-(1-(2,5-dihydro-1H-pyrrol-1-yl)-2-methyl-1-oxopro-pan-2-yl)-1-(2-(5-fluoro-2-methoxyphenyl)-2-((tetrahydro-2H-pyran-4-yl)oxy)ethyl)-5-methyl-6-(2H-1,2,3-triazol-2-yl)thieno[2,3-d]pyrimidine-2,4(1H,3H)-dione], the IC50 on human (hACC2) (Table 2a) was in the range of 0.001 to 0.005 µM; on human (hACC2) (Table 2b, additional results) it was 0.001 to 0.005 µM. In addition, the IC90 in experiment [1] (setting [2]) and in experiment [1] (setting [3]) was more than 50 mg/L in each case.
As for `COc1ccc(F)cc1[C@H](Cn1c(=O)n(C(C)(C)C(=O)N2CC=CC2)c(=O)c2c(C)c(-n3nccn3)sc21)OC[C@@H](C)O` [Compound I-63, 3-(1-(2,5-dihydro-1H-pyrrol-1-yl)-2-methyl-1-oxopropan-2-yl)-1-((R)-2-(5-fluoro-2-methoxyphenyl)-2-((R)-2-hydroxypropoxy)ethyl)-5-methyl-6-(2H-1,2,3-triazol-2-yl)thieno[2,3-d]pyrimidine-2,4(1H,3H)-dione], the IC50 at human (hACC2) (Table 2a) fell in the range of 0.005 to 0.01 µM; at human (hACC2) (Table 2b, additional results), 0.005 to 0.01 µM. Moreover, the IC90 in experiment [1] (setting [2]) and in experiment [1] (setting [3]) was more than 50 mg/L in each case.
Consider `COCCO[C@@H](Cn1c(=O)n(C(C)C(=O)N2CCCC2)c(=O)c2c(C)c(-n3nccn3)sc21)c1cc(F)ccc1OC` (stereo partly drawn) [Compound I-64, 1-((R)-2-(5-fluoro-2-methoxyphenyl)-2-(2-methoxy-ethoxy)ethyl)-5-methyl-3-(1-oxo-1-(pyrrolidin-1-yl)propan-2-yl)-6-(2H-1,2,3-triazol-2-yl)thieno[2,3-d]pyrimidine-2,4(1H,3H)-dione], for which the IC50 on human (hACC2) (Table 2a) was 0.01 to 0.04 µM; against human (hACC2) (Table 2b, additional results), 0.01 to 0.04 µM. Further, the IC90 in experiment [1] (setting [2]) and in experiment [1] (setting [3]) was more than 50 mg/L throughout.
`COCCO[C@@H](Cn1c(=O)n([C@H](C)C(=O)N2CCCC2)c(=O)c2c(C)c(-n3nccn3)sc21)c1cc(F)ccc1OC` [Compound I-65, 1-((R)-2-(5-fluoro-2-methoxyphenyl)-2-(2-methoxy-ethoxy)ethyl)-5-methyl-3-((R)-1-oxo-1-(pyrrolidin-1-yl)propan-2-yl)-6-(2H-1,2,3-triazol-2-yl)thieno[2,3-d]pyrimidine-2,4(1H,3H)-dione]: the IC50 was 0.01 to 0.04 µM against human (hACC2) (Table 2a) and 0.01 to 0.04 µM against human (hACC2) (Table 2b, additional results). For the same compound, the IC90 in experiment [1] (setting [2]) and in experiment [1] (setting [3]) was more than 50 mg/L each time.
Turning to `COCCCO[C@@H](Cn1c(=O)n(C(C)(C)C(=O)N2CCCC2)c(=O)c2c(C)c(-n3nccn3)sc21)c1cc(F)ccc1OC` [Compound I-68, (R)-1-(2-(5-fluoro-2-methoxyphenyl)-2-(3-methoxy-propoxy)ethyl)-5-methyl-3-(2-methyl-1-oxo-1-(pyrrolidin-1-yl)propan-2-yl)-6-(2H-1,2,3-triazol-2-yl)thieno[2,3-d]pyrimidine-2,4(1H,3H)-dione], the IC50 is 0.005 to 0.01 µM against human (hACC2) (Table 2a) and 0.005 to 0.01 µM against human (hACC2) (Table 2b, additional results). For the same compound, the IC90 in experiment [1] (setting [2]) and in experiment [1] (setting [3]) was more than 50 mg/L each time.
`COCCCO[C@@H](Cn1c(=O)n(C(C)(C)C(=O)NC(C)C)c(=O)c2c(C)c(-n3nccn3)sc21)c1cc(F)ccc1OC` [Compound I-69, (R)-2-(1-(2-(5-fluoro-2-methoxyphenyl)-2-(3-methoxy-propoxy)ethyl)-5-methyl-2,4-dioxo-6-(2H-1,2,3-triazol-2-yl)-1,4-dihydrothieno[2,3-d]pyrimidin-3(2H)-yl)-N-isopropyl-2-methylpropanamide]: the IC50 against human (hACC2) (Table 2a) is 0.005 to 0.01 µM; against human (hACC2) (Table 2b, additional results) it was 0.005 to 0.01 µM. The IC90 in experiment [1] (setting [4]) and in experiment [1] (setting [5]) was more than 50 mg/L each time.
For the compound `C=CCNC(=O)C(C)(C)n1c(=O)c2c(C)c(-n3nccn3)sc2n(C[C@H](OC2CCOCC2)c2cc(F)ccc2OC)c1=O` [Compound I-70, (R)—N-allyl-2-(1-(2-(5-fluoro-2-methoxyphenyl)-2-((tetrahydro-2H-pyran-4-yl)oxy)ethyl)-5-methyl-2,4-dioxo-6-(2H-1,2,3-triazol-2-yl)-1,4-dihydrothieno[2,3-d]pyrimidin-3(2H)-yl)-2-methylpropanamide], the IC50 against human (hACC2) (Table 2a) was in the range of 0.001 to 0.005 µM; against human (hACC2) (Table 2b, additional results), 0.001 to 0.005 µM. In addition, the IC90 in experiment [1] (setting [4]) and in experiment [1] (setting [5]) was more than 50 mg/L throughout.
As to `C=CCN(C)C(=O)C(C)(C)n1c(=O)c2c(C)c(-n3nccn3)sc2n(C[C@H](OC2CCOCC2)c2cc(F)ccc2OC)c1=O` [Compound I-71, (R)—N-allyl-2-(1-(2-(5-fluoro-2-methoxyphenyl)-2-((tetrahydro-2H-pyran-4-yl)oxy)ethyl)-5-methyl-2,4-dioxo-6-(2H-1,2,3-triazol-2-yl)-1,4-dihydrothieno[2,3-d]pyrimidin-3(2H)-yl)-N,2-dimethylpropanamide], the IC50 against human (hACC2) (Table 2a) fell in the range of 0.001 to 0.005 µM; at human (hACC2) (Table 2b, additional results), 0.001 to 0.005 µM. Also, the IC90 in experiment [1] (setting [2]) and in experiment [1] (setting [3]) was more than 50 mg/L in each case.
With `C=CCO[C@@H](Cn1c(=O)n(C(C)(C)C(=O)NC(C)C)c(=O)c2c(C)c(-n3nccn3)sc21)c1cc(F)ccc1OC` [Compound I-72, (R)-2-(1-(2-(allyloxy)-2-(5-fluoro-2-methoxyphenyl)ethyl)-5-methyl-2,4-dioxo-6-(2H-1,2,3-triazol-2-yl)-1,4-dihydrothieno[2,3-d]pyrimidin-3(2H)-yl)-N-isopropyl-2-methylpropanamide], the IC50 at human (hACC2) (Table 2a) was 0.001 to 0.005 µM; against human (hACC2) (Table 2b, additional results), 0.001 to 0.005 µM. The IC90 in experiment [1] (setting [4]) and in experiment [1] (setting [5]) was more than 50 mg/L in each case.
As to `COc1ccc(F)cc1[C@H](Cn1c(=O)n(C(C)(C)C(=O)NC2CC2)c(=O)c2c(C)c(-n3nccn3)sc21)OC(C)C` [Compound I-73, (R)—N-cyclopropyl-2-(1-(2-(5-fluoro-2-methoxyphenyl)-2-isopropoxyethyl)-5-methyl-2,4-dioxo-6-(2H-1,2,3-triazol-2-yl)-1,4-dihydrothieno[2,3-d]pyrimidin-3(2H)-yl)-2-methylpropanamide], the IC50 lay in the range of 0.005 to 0.01 µM on human (hACC2) (Table 2a) and 0.005 to 0.01 µM on human (hACC2) (Table 2b, additional results). Further, the IC90 in experiment [1] (setting [2]) and in experiment [1] (setting [3]) was more than 50 mg/L each time.
With `COc1ccc(F)cc1[C@H](Cn1c(=O)n(C(C)(C)C(=O)N2CCCC2)c(=O)c2c(C)c(-n3nccn3)sc21)OCCN(C)C` [Compound I-75, (R)-1-(2-(2-(dimethylamino)ethoxy)-2-(5-fluoro-2-methoxyphenyl)ethyl)-5-methyl-3-(2-methyl-1-oxo-1-(pyrrolidin-1-yl)propan-2-yl)-6-(2H-1,2,3-triazol-2-yl)thieno[2,3-d]pyrimidine-2,4(1H,3H)-dione], the IC50 is more than 0.04 µM against human (hACC2) (Table 2a) and more than 0.04 µM against human (hACC2) (Table 2b, additional results). In addition, the IC90 in experiment [1] (setting [2]) and in experiment [1] (setting [3]) was more than 50 mg/L throughout.
In the case of `COc1ccc(F)cc1[C@H](Cn1c(=O)n(C(C)(C)C(=O)NC(C)C)c(=O)c2c(C)c(-n3nccn3)sc21)OCCN(C)C` [Compound I-76, (R)-2-(1-(2-(2-(dimethylamino)ethoxy)-2-(5-fluoro-2-methoxyphenyl)ethyl)-5-methyl-2,4-dioxo-6-(2H-1,2,3-triazol-2-yl)-1,4-dihydro-thieno[2,3-d]pyrimidin-3(2H)-yl)-N-isopropyl-2-methylpropanamide], the IC50 against human (hACC2) (Table 2a) was more than 0.04 µM; against human (hACC2) (Table 2b, additional results), more than 0.04 µM. Moreover, the IC90 in experiment [1] (setting [4]) and in experiment [1] (setting [5]) was more than 50 mg/L each time.
Consider `COc1ccc(F)cc1[C@H](Cn1c(=O)n([C@@H](C)C(=O)NC2CCC2)c(=O)c2c(C)c(-n3nccn3)sc21)OCCO` [Compound I-77, (S)—N-cyclobutyl-2-(1-((R)-2-(5-fluoro-2-methoxyphenyl)-2-(2-hydroxyethoxy)ethyl)-5-methyl-2,4-dioxo-6-(2H-1,2,3-triazol-2-yl)-1,4-dihydrothieno[2,3-d]pyrimidin-3(2H)-yl)propanamide], for which the IC50 at human (hACC2) (Table 2a) fell in the range of 0.01 to 0.04 µM; at human (hACC2) (Table 2b, additional results) it was 0.01 to 0.04 µM. Moreover, the IC90 in experiment [1] (setting [2]) and in experiment [1] (setting [3]) was more than 50 mg/L throughout.
As for `COc1ccc(F)cc1[C@H](Cn1c(=O)n([C@@H](C)C(=O)N(C)C(C)C)c(=O)c2c(C)c(-n3nccn3)sc21)OCCO` [Compound I-78, (S)-2-(1-((R)-2-(5-fluoro-2-methoxyphenyl)-2-(2-hydroxy-ethoxy)ethyl)-5-methyl-2,4-dioxo-6-(2H-1,2,3-triazol-2-yl)-1,4-dihydrothieno[2,3-d]pyrimidin-3(2H)-yl)-N-isopropyl-N-methylpropanamide], the IC50 is 0.01 to 0.04 µM on human (hACC2) (Table 2a) and 0.01 to 0.04 µM against human (hACC2) (Table 2b, additional results). In addition, the IC90 in experiment [1] (setting [2]) and in experiment [1] (setting [3]) was more than 50 mg/L throughout.
`COCCO[C@@H](Cn1c(=O)n(CC(=O)N2CCCC2)c(=O)c2c(C)c(-n3nccn3)sc21)c1cc(F)ccc1OC` [Compound I-79, (R)-1-(2-(5-fluoro-2-methoxyphenyl)-2-(2-methoxy-ethoxy)ethyl)-5-methyl-3-(2-oxo-2-(pyrrolidin-1-yl)ethyl)-6-(2H-1,2,3-tria-zol-2-yl)thieno[2,3-d]pyrimidine-2,4(1H,3H)-dione]: the IC50 was in the range of 0.01 to 0.04 µM on human (hACC2) (Table 2a) and 0.01 to 0.04 µM on human (hACC2) (Table 2b, additional results). For the same compound, the IC90 in experiment [1] (setting [2]) and in experiment [1] (setting [3]) was more than 50 mg/L in each case.
In the case of `COCCO[C@@H](Cn1c(=O)n(CC(=O)NC(C)C)c(=O)c2c(C)c(-n3nccn3)sc21)c1cc(F)ccc1OC` [Compound I-80, (R)-2-(1-(2-(5-fluoro-2-methoxyphenyl)-2-(2-methoxy-ethoxy)ethyl)-5-methyl-2,4-dioxo-6-(2H-1,2,3-triazol-2-yl)-1,4-dihydro-thieno[2,3-d]pyrimidin-3(2H)-yl)-N-isopropylacetamide], the IC50 at human (hACC2) (Table 2a) was more than 0.04 µM; at human (hACC2) (Table 2b, additional results), more than 0.04 µM. In addition, the IC90 in experiment [1] (setting [4]) and in experiment [1] (setting [5]) was more than 50 mg/L each time.

A word on the IC50: it is the midpoint of a concentration-inhibition curve.
